{
  "source": "patent US8288315B2",
  "about": "“Fungicide mixtures” (BASF SE, priority 2007, dated 2012)",
  "key": {"Puccinia recondita": {"system": "Puccinia recondita", "test": "Protective activity against Puccinia recondita on wheat (brown rust of wheat)", "format": "in vivo", "conditions": "wheat seedlings, sprayed 1 day before inoculation, rated after a further 7 days, efficacy as % of untreated control", "procedure": "(§1) The mixture was then made up with water to 100 ml.\nThe next day, the treated plants were inoculated with a spore suspension of brown rust of wheat (Puccinia recondita). The plants were then placed in a chamber with high atmospheric humidity (90 to 95%) at 20 to 22° C. for 24 hours. During this time, the spores germinated and the germ tubes penetrated into the leaf tissue. The following day, the test plants were returned to the greenhouse and cultivated at temperatures between 20 and 22° C. and at 65 to 70% relative atmospheric humidity for a further 7 days. The extent of the rust fungus development on the leaves was then determined visually.\n(§2) The visually determined percentages of infected leaf areas were converted into efficacies as % of the untreated control:\n(§3) The efficacy (E) is calculated as follows using Abbot's formula: E=(1−α/β)·100 • α corresponds to the fungicidal infection of the treated plants in % and • β corresponds to the fungicidal infection of the untreated (control) plants in %\n(§4) An efficacy of 0 means that the infection level of the treated plants corresponds to that of the untreated control plants; an efficacy of 100 means that the treated plants are not infected."}, "Botrytis cinerea": {"system": "Botrytis cinerea", "test": "Activity against gray mold on bell pepper leaves caused by Botrytis cinerea, 1 day protective application", "format": "in vivo", "conditions": "bell pepper seedlings, sprayed 1 day before inoculation, rated after 5 days, efficacy as % of untreated control", "procedure": "as §1\nThe next day, the treated plants were inoculated with a spore suspension of Botrytis cinerea in a 2% strength biomalt solution. The test plants were then placed in a dark climatized chamber at 22 to 24° C. and high atmospheric humidity. After 5 days, the extent of the fungal infection on the leaves could be determined visually in %.\nas §2, §3, §4"}},
  "data": [
    {"smiles": "CC1(C)CCC(Cc2ccc(Cl)cc2)C1(O)Cn1cncn1", "note": "(stereo not drawn) [Metconazole, (1RS,5RS;1RS,5SR)-5-(4-chlorobenzyl)-2,2-dimethyl-1-(1H-1,2,4-triazol-1-ylmethyl)cyclopentanol]", "values": [
      {"measurement": "Observed effect (%)", "setting": "Puccinia recondita; 0.25 ppm", "result": 13, "unit": "%"},
      {"measurement": "Observed effect (%)", "setting": "Botrytis cinerea; 0.016 ppm", "result": 0, "unit": "%"}
    ]},
    {"smiles": "CCCN(CCOc1c(Cl)cc(Cl)cc1Cl)C(=O)n1ccnc1", "note": "[Prochloraz, N-propyl-N-[2-(2,4,6-trichlorophenoxy)ethyl]imidazole-1-carboxamide]", "values": [
      {"measurement": "Observed effect (%)", "setting": "Puccinia recondita; 4 ppm", "result": 0, "unit": "%"},
      {"measurement": "Observed effect (%)", "setting": "Botrytis cinerea; 0.25 ppm", "result": 0, "unit": "%"}
    ]}
  ]
}
